Data: the supplement of paper PMC10307832

Columns and labels:
Experiment in all cases: relative viability (nuclei count vs DMSO), 5 days (fraction); higher = more cells survive
Fedratinib + Crizotinib = compound: Cc1cnc(Nc2ccc(OCCN3CCCC3)cc2)nc1Nc1cccc(S(=O)(=O)NC(C)(C)C)c1 [Fedratinib] + C[C@@H](Oc1cc(-c2cnn(C3CCNCC3)c2)cnc1N)c1c(Cl)ccc(F)c1Cl [Crizotinib] (partner 1 µM)
How it was run: (§1)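 Relative viability divides the nuclei count in treated wells by that in vehicle wells. Lung cancer cell lines were seeded in 1536-well plates, dosed by pin tool the next day, and fixed and stained after 5 days in one step with final 0.05% Triton X-100, 1% formaldehyde and 1 ug/ml Hoechst. Dosing was a single drug or a fixed anchor-drug dose plus five library-drug doses (not always all listed) in √10 steps, and values are medians of duplicate plates imaged at 4×.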

Fedratinib + Pemetrexed = compound: Cc1cnc(Nc2ccc(OCCN3CCCC3)cc2)nc1Nc1cccc(S(=O)(=O)NC(C)(C)C)c1 [Fedratinib] + Nc1nc2[nH]cc(CCc3ccc(C(=O)N[C@@H](CCC(=O)O)C(=O)O)cc3)c2c(=O)[nH]1 [Pemetrexed] (partner 0.2 µM)
How it was run: as §1

GW-2580 + OSI-027 = compound: COC1=CC=C(C=C1)COC2=C(C=C(C=C2)CC3=CN=C(N=C3N)N)OC [GW-2580] + COc1cccc2cc(-c3nc([C@H]4CC[C@H](C(=O)O)CC4)n4ncnc(N)c34)[nH]c12 [OSI-027] (partner 0.5 µM)
How it was run: as §1

Fedratinib + OSI-027 = compound: Cc1cnc(Nc2ccc(OCCN3CCCC3)cc2)nc1Nc1cccc(S(=O)(=O)NC(C)(C)C)c1 [Fedratinib] + COc1cccc2cc(-c3nc([C@H]4CC[C@H](C(=O)O)CC4)n4ncnc(N)c34)[nH]c12 [OSI-027] (partner 0.5 µM)
How it was run: as §1

GW-2580 + Decitabine = compound: COC1=CC=C(C=C1)COC2=C(C=C(C=C2)CC3=CN=C(N=C3N)N)OC [GW-2580] + Nc1ncn([C@H]2C[C@H](O)[C@@H](CO)O2)c(=O)n1 [Decitabine] (partner 2 µM)
How it was run: as §1

Fedratinib + Olaparib = compound: Cc1cnc(Nc2ccc(OCCN3CCCC3)cc2)nc1Nc1cccc(S(=O)(=O)NC(C)(C)C)c1 [Fedratinib] + O=C(c1cc(Cc2n[nH]c(=O)c3ccccc23)ccc1F)N1CCN(C(=O)C2CC2)CC1 [Olaparib] (partner 8 µM)
How it was run: as §1

Cell Line | relative viability (Fedratinib + Crizotinib; first compound 0.1 µM) | relative viability (Fedratinib + Crizotinib; first compound 0.3162 µM) | relative viability (Fedratinib + Crizotinib; first compound 1 µM) | relative viability (Fedratinib + Pemetrexed; first compound 0.1 µM) | relative viability (Fedratinib + Pemetrexed; first compound 0.3162 µM) | relative viability (Fedratinib + Pemetrexed; first compound 1 µM) | relative viability (GW-2580 + OSI-027; first compound 0.08 µM) | relative viability (GW-2580 + OSI-027; first compound 0.8 µM) | relative viability (GW-2580 + OSI-027; first compound 2.53 µM) | relative viability (GW-2580 + OSI-027; first compound 8 µM) | relative viability (Fedratinib + OSI-027; first compound 0.1 µM) | relative viability (Fedratinib + OSI-027; first compound 0.3162 µM) | relative viability (Fedratinib + OSI-027; first compound 1 µM) | relative viability (GW-2580 + Decitabine; first compound 0.08 µM) | relative viability (GW-2580 + Decitabine; first compound 0.8 µM) | relative viability (GW-2580 + Decitabine; first compound 2.53 µM) | relative viability (GW-2580 + Decitabine; first compound 8 µM) | relative viability (Fedratinib + Olaparib; first compound 0.1 µM) | relative viability (Fedratinib + Olaparib; first compound 0.3162 µM) | relative viability (Fedratinib + Olaparib; first compound 1 µM)
NCI-H1975 | 0.802 | 0.928 | 0.663 | 0.29 | 0.306 | 0.272 | 0.952 | 0.829 | 0.709 | 0.58 | 0.729 | 0.833 | 0.602 | 0.417 | 0.455 | 0.376 | 0.4 | 0.814 | 0.841 | 0.613
CAL-12T | 0.262 | 0.588 | 0.322 | 1.02 | 1.2 | 1.31 | 0.609 | 0.853 | 0.526 | 0.699 | 0.566 | 0.694 | 0.474 | – | – | – | – | 0.654 | 0.737 | 0.764
NCI-H1623 | – | – | – | – | – | – | 0.4 | 0.475 | 0.393 | 0.428 | 0.438 | 0.48 | 0.38 | – | – | – | – | – | – | –
HCC-44 | 0.797 | 0.756 | 0.85 | 0.646 | 0.638 | 0.68 | 0.51 | 0.523 | 0.5 | 0.524 | 0.482 | 0.544 | 0.362 | 0.97 | 0.912 | 0.974 | 1.08 | 0.928 | 0.945 | 0.964
EKVX | 1.05 | 0.889 | 0.958 | 0.377 | 0.431 | 0.392 | 0.692 | 0.755 | 0.73 | 0.67 | 0.702 | 0.745 | 0.758 | 0.578 | 0.749 | 0.345 | 0.335 | 0.969 | 0.811 | 0.853
NCI-H1651 | 0.931 | 0.875 | 0.808 | 0.457 | 0.543 | 0.57 | 0.804 | 0.753 | 0.748 | 0.896 | 0.707 | 0.653 | 0.62 | 0.565 | 0.666 | 0.551 | 0.548 | 0.173 | 0.169 | 0.169
NCI-H1944 | 1.12 | 1.09 | 1.04 | 0.665 | 0.643 | 0.624 | 0.463 | 0.46 | 0.439 | 0.365 | 0.343 | 0.413 | 0.344 | 0.414 | 0.421 | 0.45 | 0.395 | 0.407 | 0.383 | 0.408
NCI-H1703 | 0.629 | 0.51 | 0.533 | – | – | – | – | – | – | – | – | – | – | – | – | – | – | – | 0.359 | 0.291
Calu-6 | 0.753 | 0.701 | 0.677 | – | – | – | – | – | – | – | – | – | – | – | – | – | – | 0.618 | 0.588 | 0.55
EBC-1 | 0.184 | 0.213 | 0.185 | – | – | – | – | – | – | – | – | – | – | – | – | – | – | 0.609 | 0.654 | 0.551
SW 1573 | 0.747 | 0.733 | 0.709 | 0.753 | 0.857 | 0.673 | 0.809 | 0.626 | 0.666 | 0.577 | 0.564 | 0.635 | 0.394 | 0.498 | 0.58 | 0.422 | 0.537 | 0.539 | 0.502 | 0.474
A-427 | 0.802 | 0.755 | 0.686 | 0.97 | 0.848 | 0.939 | 0.453 | 0.371 | 0.518 | 0.435 | 0.444 | 0.498 | 0.118 | 0.541 | 0.555 | 0.531 | 0.618 | 0.648 | 0.708 | 0.716
NCI-H2347 | 0.721 | 0.667 | 0.679 | 0.335 | 0.419 | 0.433 | 0.341 | 0.364 | 0.371 | 0.433 | 0.292 | 0.428 | 0.497 | 0.676 | 0.662 | 0.582 | 0.587 | 0.551 | 0.58 | 0.596
NCI-H1355 | 1.06 | 1.04 | 1.07 | 1.08 | 1.05 | 1.06 | 0.378 | 0.466 | 0.37 | 0.35 | 0.323 | 0.437 | 0.258 | 0.314 | 0.339 | 0.322 | 0.353 | 0.771 | 0.817 | 0.699
NCI-H358 | 0.427 | 0.608 | 0.374 | 0.175 | 0.155 | 0.156 | 0.944 | 0.817 | 0.667 | 0.742 | 0.594 | 0.892 | 0.47 | 0.208 | 0.206 | 0.201 | 0.217 | 0.62 | 0.536 | 0.44
PC-3 [JPC-3] | 0.998 | 0.944 | 0.985 | 1.04 | 1.23 | 1.03 | 0.75 | 0.985 | 0.721 | 0.724 | 0.776 | 0.801 | 0.764 | 0.8 | 0.855 | 0.829 | 0.783 | 1.01 | 1.09 | 1.01
NCI-H2228 | 0.528 | 0.46 | 0.392 | 0.331 | 0.284 | 0.294 | 0.569 | 0.6 | 0.639 | 0.545 | 0.62 | 0.507 | 0.482 | – | – | – | – | 0.648 | 0.631 | 0.495
HOP-62 | 0.786 | 0.891 | 0.784 | 0.26 | 0.244 | 0.322 | 0.905 | 0.801 | 0.847 | 0.985 | 0.849 | 0.647 | 0.719 | 0.174 | 0.192 | 0.231 | 0.23 | 0.712 | 0.352 | 0.518
